From US20100261731A1, “Method for Treating a Disease, Disorder or Adverse Effect Caused by an Elevated Serum Concentration of an UGT1A1 Substrate” (Abbott Laboratories, priority 2009, published 2010)

Tests used:
[1] = Ethinylestradiol pharmacokinetics alone and with ritonavir in healthy female volunteers; format: in vivo, human
Description: This was an open-label, single-center study in healthy female volunteers who had not received an oral contraceptive for a minimum of six months prior to study start. Subjects received the first dose of oral contraceptive containing 50 μg of ethinyl estradiol on Day 1. […] On Day 15, 300 mg q12h was administered, 400 mg q12h was given on Day 16, and 500 mg q12h was administered thereafter. […] Blood samples for ethinylestradiol concentrations were collected for 48 h after each of the oral contraceptive doses.
Twenty-seven subjects were enrolled in the study. […] Data from these four subjects were therefore excluded from summary statistics. The mean ±SD age of the 23 subjects who completed the study was 34±10 yrs (range 19 to 45 yrs), the mean ±SD weight was 67.3±10.9 kg (range 50.8 to 90.3 kg), and the mean ±SD height was 167±7 cm (range 155 to 180 cm). […]
Analysis of serum samples for determination of ethinyl estradiol was performed at Pharmaco LSR, Richmond, Va. Ethinylestradiol serum concentrations were determined using a gas chromatography/mass spectrometry (GC/MS) method. […] This method has been validated over 17α-ethinylestradiol concentrations ranging from 2.00 to 256 pg/mL for a 1.0 mL serum volume, with a minimum quantitation limit of 2.00 pg/mL.
Ethinylestradiol pharmacokinetic parameters were estimated following two single doses, on Day 1 and Day 29, using noncompartmental methods. The pharmacokinetic parameters were calculated using the intended sampling times; all samples were collected within 10% of intended sampling times. […] The area under the plasma concentration-time curve (AUC∞) was calculated as the sum of AUCt, the area up to the last measurable concentration computed using the linear trapezoidal rule, and the extrapolation to infinity, calculated as the quotient of the last measurable concentration (Ct) and the terminal elimination rate constant (β). The terminal elimination rate constant was calculated as the negative of the slope of the regression of the logarithms of the plasma concentrations vs. time, starting at 18 h post-dose. […]

[2] = system: 1-naphthol glucuronidation; assay: Hepatic 1-naphthol glucuronidation activity in liver microsomes of treated rats
UGT1A1 = assay: Hepatic 17α-ethinylestradiol glucuronidation activity in liver microsomes of treated rats
[3] = system: 3-methylcholanthrene-inducible UDP-glucuronosyltransferase; assay: Rat liver microarray (Affymetrix Rat U34), UGT1A probe induction; format: in vivo, Sprague-Dawley rats
[4] = system: UDP-glucuronosyltransferase 1A (UGT1A); assay: Rat liver microarray, all UGT1A probe sets; format: in vivo, Sprague-Dawley rats; conditions: dose levels of 100 mg/kg and higher, after 1 and 3 days of treatment
[5] = system: UDP glucuronosyltransferase, exon 1.; assay: Rat liver microarray (Affymetrix Rat U34), UGT1A probe induction; format: in vivo, Sprague-Dawley rats
[6] = system: UDP-glucuronosyltransferase 1 family, member 1; assay: as above; format: in vivo, Sprague-Dawley rats; conditions: 3-Day Studies
[7] = system: bilirubin conjugation in human microsomes; conditions: in vitro system of human microsomes; cited from earlier work
UGT1A1 isoform = target: T1, UGT1A1 isoform (Homo sapiens, UniProt P22309); conditions: human cells transfected with the UGT1A1 isoform; cited from earlier work
T1 sequence (P22309 26-533): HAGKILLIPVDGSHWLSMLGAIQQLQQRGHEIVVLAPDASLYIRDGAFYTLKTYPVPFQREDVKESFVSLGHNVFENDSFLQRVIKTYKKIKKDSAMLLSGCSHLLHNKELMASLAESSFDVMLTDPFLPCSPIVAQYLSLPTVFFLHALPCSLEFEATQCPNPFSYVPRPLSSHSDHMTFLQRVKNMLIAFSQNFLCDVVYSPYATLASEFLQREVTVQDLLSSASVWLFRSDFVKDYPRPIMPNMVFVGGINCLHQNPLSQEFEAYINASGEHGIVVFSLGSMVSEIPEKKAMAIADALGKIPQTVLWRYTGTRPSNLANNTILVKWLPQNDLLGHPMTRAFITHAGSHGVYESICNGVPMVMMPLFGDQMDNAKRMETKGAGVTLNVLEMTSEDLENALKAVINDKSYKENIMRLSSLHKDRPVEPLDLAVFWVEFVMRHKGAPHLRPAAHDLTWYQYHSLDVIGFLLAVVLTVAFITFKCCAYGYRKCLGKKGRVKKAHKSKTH

[8] = subjects taking atazanavir, one study; cited from earlier work
[9] = system: bilirubin-conjugating activity; conditions: cited from earlier work
[10] = serum ethinylestradiol, single 50 μg oral contraceptive dose, Mean ± SD, n = 23, alone Day 1, with ritonavir 500 mg q12h Day 29
[11] = 1-Day Studies, 50 mg/kg oral (second column)
[12] = 3-Day Studies, 100 mg/kg oral daily
[13] = 3-Day Studies, 125 mg/kg oral daily

C#C[C@]1(O)CC[C@H]2[C@@H]3CCc4cc(O)ccc4[C@H]3CC[C@@]21C [Ethinylestradiol, 17α-ethinylestradiol]
Tmax [1, 10]: 4.0 ± 1.7 h
β (terminal elimination rate constant) [1, 10]: 0.0407 ± 0.0082 h⁻¹
time at which serum ethinylestradiol concentrations peaked post-dose ([1]; single dose of oral contraceptive): approximately 4 h

CCC1(c2ccccc2)C(=O)NC(=O)NC1=O [Phenobarbitol]
1-naphthol glucuronidation ([2]; Females, T3: phenobarbital 50 mg/kg intraperitoneal daily 4 days, 50 μM substrate): 9.3 ± 0.4 nmol/mg/min
1-naphthol glucuronidation ([2]; Females, T3: phenobarbital 50 mg/kg intraperitoneal daily 4 days, 1000 μM substrate): 46.4 ± 8.6 nmol/mg/min
1-naphthol glucuronidation ([2]; Males, T3: phenobarbital 50 mg/kg intraperitoneal daily 4 days, 50 μM substrate): 15.4 ± 3.1 nmol/mg/min
1-naphthol glucuronidation ([2]; Males, T3: phenobarbital 50 mg/kg intraperitoneal daily 4 days, 1000 μM substrate): 41.0 ± 5.0 nmol/mg/min
17α-ethinylestradiol glucuronidation (UGT1A1; Females, T3: phenobarbital 50 mg/kg intraperitoneal daily 4 days, 100 μM substrate): 91.0 ± 34.0 pmol/mg/min
17α-ethinylestradiol glucuronidation (UGT1A1; Females, T3: phenobarbital 50 mg/kg intraperitoneal daily 4 days, 250 μM substrate): 360.6 ± 88.1 pmol/mg/min
17α-ethinylestradiol glucuronidation (UGT1A1; Males, T3: phenobarbital 50 mg/kg intraperitoneal daily 4 days, 100 μM substrate): 45.1 ± 16.5 pmol/mg/min
17α-ethinylestradiol glucuronidation (UGT1A1; Males, T3: phenobarbital 50 mg/kg intraperitoneal daily 4 days, 250 μM substrate): 258.5 ± 98.5 pmol/mg/min

CC(C)c1nc(CN(C)C(=O)N[C@H](C(=O)N[C@@H](Cc2ccccc2)C[C@H](O)[C@H](Cc2ccccc2)NC(=O)OCc2cncs2)C(C)C)cs1 [Ritonavir]
Fold change ([3]; 1-Day Studies, 20 mg/kg oral (first column)): 1.83 fold
Fold change ([3]; 1-Day Studies, 20 mg/kg oral (second column)): 1.54 fold
Fold change ([3]; 1-Day Studies, 50 mg/kg oral (first column)): 1.63 fold
Fold change [3, 11]: 2.1 fold
Fold change ([3]; 3-Day Studies, 50 mg/kg oral daily (first column)): 1.54 fold
Fold change ([3]; 3-Day Studies, 50 mg/kg oral daily (second column)): 1.85 fold
Fold change ([3]; 3-Day Studies, 75 mg/kg oral daily): 1.97 fold
Fold change [3, 12]: 2.26 fold
Fold change [3, 13]: 2.25 fold
UG1A levels for all probe sets [4]: consistent increase
1-naphthol glucuronidation ([2]; Females, T1: ritonavir 15 mg/kg oral daily 14 days, 50 μM substrate): 7.3 ± 1.2 nmol/mg/min
1-naphthol glucuronidation ([2]; Females, T1: ritonavir 15 mg/kg oral daily 14 days, 1000 μM substrate): 33.7 ± 5.2 nmol/mg/min
1-naphthol glucuronidation ([2]; Females, T2: ritonavir 50 mg/kg oral daily 14 days, 50 μM substrate): 10.0 ± 2.7 nmol/mg/min
1-naphthol glucuronidation ([2]; Females, T2: ritonavir 50 mg/kg oral daily 14 days, 1000 μM substrate): 37.7 ± 4.9 nmol/mg/min
1-naphthol glucuronidation ([2]; Males, T1: ritonavir 15 mg/kg oral daily 14 days, 50 μM substrate): 9.5 ± 1.5 nmol/mg/min
1-naphthol glucuronidation ([2]; Males, T1: ritonavir 15 mg/kg oral daily 14 days, 1000 μM substrate): 23.0 ± 2.5 nmol/mg/min
1-naphthol glucuronidation ([2]; Males, T2: ritonavir 50 mg/kg oral daily 14 days, 50 μM substrate): 8.3 ± 1.4 nmol/mg/min
1-naphthol glucuronidation ([2]; Males, T2: ritonavir 50 mg/kg oral daily 14 days, 1000 μM substrate): 22.8 ± 4.3 nmol/mg/min
Fold change [5, 11]: 2.43 fold
Fold change [5, 12]: 3.96 fold
Fold change [5, 13]: 5.06 fold
Fold change ([6]; 50 mg/kg oral daily (first column)): 1.31 fold
Fold change ([6]; 50 mg/kg oral daily (second column)): 1.33 fold
17α-ethinylestradiol glucuronidation (UGT1A1; Females, T1: ritonavir 15 mg/kg oral daily 14 days, 100 μM substrate): 54.5 ± 24.0 pmol/mg/min
17α-ethinylestradiol glucuronidation (UGT1A1; Females, T1: ritonavir 15 mg/kg oral daily 14 days, 250 μM substrate): 336.4 ± 75.8 pmol/mg/min
17α-ethinylestradiol glucuronidation (UGT1A1; Females, T2: ritonavir 50 mg/kg oral daily 14 days, 100 μM substrate): 146.5 ± 26.0 pmol/mg/min
17α-ethinylestradiol glucuronidation (UGT1A1; Females, T2: ritonavir 50 mg/kg oral daily 14 days, 250 μM substrate): 590.9 ± 101.2 pmol/mg/min
17α-ethinylestradiol glucuronidation (UGT1A1; Males, T1: ritonavir 15 mg/kg oral daily 14 days, 100 μM substrate): 58.8 ± 2.2 pmol/mg/min
17α-ethinylestradiol glucuronidation (UGT1A1; Males, T1: ritonavir 15 mg/kg oral daily 14 days, 250 μM substrate): 171.8 ± 38.1 pmol/mg/min
17α-ethinylestradiol glucuronidation (UGT1A1; Males, T2: ritonavir 50 mg/kg oral daily 14 days, 100 μM substrate): 34.0 ± 10.0 pmol/mg/min
17α-ethinylestradiol glucuronidation (UGT1A1; Males, T2: ritonavir 50 mg/kg oral daily 14 days, 250 μM substrate): 290.1 ± 45.6 pmol/mg/min
glucuronidation of 17α-ethinylestradiol, a UGT1A1 substrate (UGT1A1; both male and female rats): significantly increase
increase in glucuronidation of 17α-ethinylestradiol (UGT1A1; both male and female rats treated with 50 mg/kg/day): 2 fold

COC(=O)N[C@H](C(=O)N[C@@H](Cc1ccccc1)[C@@H](O)CN(Cc1ccc(-c2ccccn2)cc1)NC(=O)[C@@H](NC(=O)OC)C(C)(C)C)C(C)(C)C [atazanavir, Atazanavir]
inhibition of bilirubin conjugation [7]: inhibits bilirubin conjugation in the micromolar range
inhibition of bilirubin conjugation (UGT1A1 isoform): inhibits bilirubin conjugation in the micromolar range
subjects exhibiting unconjugated hyperbilirubinemia [8]: 57%

CC(C)(C)NC(=O)[C@@H]1CN(Cc2cccnc2)CCN1C[C@@H](O)C[C@@H](Cc1ccccc1)C(=O)N[C@H]1c2ccccc2C[C@H]1O [indinavir, Indinavir]
inhibition of bilirubin-conjugating activity [9]: direct inhibition of bilirubin-conjugating activity
